Values belong to the molecule of their own block, whether it stands above or below them.
Tests used:
[1] = test system: experimental amnesia caused in rats by scopolamine; assay: Preventive effect against experimental amnesia caused in rats by scopolamine (passive avoidance learning, intraperitoneal administration); type: in vivo, Wister male rats; conditions: for No. of avoidances during learning / Initial avoidance time: before scopolamine (3 mg/kg i.p.); for Initial avoidance time: learning; for Avoidance time After 24 hrs / No. of amnesic rats/No. of rats tested / Percentage amnesia: scopolamine 3 mg/kg i.p. after learning, 24 hrs
Method: Measurement of preventive effect against experimental amnesia caused in rats by scopolamine (Intraperitoneal administration)
Several of the anti-prolyl endopeptidase compounds according to the present invention were checked for their ability to prevent the inhibition of long-term memory fixation by scopolamine. […] One hour after the administration, electric shocks were applied to the rats so that they would acquire passive avoidance learning. Immediately thereafter, scopolamine was administered intraperitoneally to each rat in an amount of 3 mg per kg of body weight.
The results of the test were assessed 24 hours after the administration of scopolamine. The number of amnesic rats and of sound rats was counted for each of the control group (rats to which the test compounds were not administered but to which only scopolamine and physiological saline were administered intraperitoneally) and the treated group (rats to which both the test compound and scopolamine were administered).

prolyl endopeptidase = prolyl endopeptidase (Elizabethkingia meningoseptica, UniProt P27028); type: biochemical; conditions: amount per test tube for 50% inhibition; pH 7.0, 35° C., 10 minutes
Method: Measurement of anti-prolyl endopeptidase activity
The method of Yoshimoto and Tsuru [T. Yoshimoto and D. Tsuru, Agric. […] A mixture of 0.0025M Z-glycyl-proline-β-naphthylamide (0.25 ml), 0.1M phosphate buffer (pH, 7.0; 0.99 ml) and a solution of a particular anti-propyl endopeptidase compound (0.01 ml) was incubated in a test tube at 37° C. for 3 minutes. Thereafter, 0.1 ml of a solution of prolyl endopeptidase (0.2 U/ml) was added and the mixture was incubated at 35° C. for 10 minutes. After the reaction, 2.0 ml of Triton X-100 in 1M acetate buffer (pH, 4.0) was added to the reaction mixture so that the final concentration of the surfactant was 10%. The mixture was left at room temperature for 15 minutes and the absorbance (a) at 410 nm was measured.
A sample of a blind test was prepared by using the buffer instead of the anti-prolyl endopeptidase compound and its absorbance (b) was also measured. The percent inhibition of prolyl endopeptidase was calculated by the formula: […]

[2] = Acute toxicity test in mice; conditions: mouse, in vivo, ip; intraperitoneal, in DMSO, five mice per group
Method: Acute toxicity test in mice
Test samples were prepared by dissolving the respective compounds in DMSO, and a portion (0.1 ml) of the so conditioned test sample was administered intraperitoneally to each of the mice used. Each of the treated groups consisted of five mice.

Sequence of prolyl endopeptidase (P27028 21-705): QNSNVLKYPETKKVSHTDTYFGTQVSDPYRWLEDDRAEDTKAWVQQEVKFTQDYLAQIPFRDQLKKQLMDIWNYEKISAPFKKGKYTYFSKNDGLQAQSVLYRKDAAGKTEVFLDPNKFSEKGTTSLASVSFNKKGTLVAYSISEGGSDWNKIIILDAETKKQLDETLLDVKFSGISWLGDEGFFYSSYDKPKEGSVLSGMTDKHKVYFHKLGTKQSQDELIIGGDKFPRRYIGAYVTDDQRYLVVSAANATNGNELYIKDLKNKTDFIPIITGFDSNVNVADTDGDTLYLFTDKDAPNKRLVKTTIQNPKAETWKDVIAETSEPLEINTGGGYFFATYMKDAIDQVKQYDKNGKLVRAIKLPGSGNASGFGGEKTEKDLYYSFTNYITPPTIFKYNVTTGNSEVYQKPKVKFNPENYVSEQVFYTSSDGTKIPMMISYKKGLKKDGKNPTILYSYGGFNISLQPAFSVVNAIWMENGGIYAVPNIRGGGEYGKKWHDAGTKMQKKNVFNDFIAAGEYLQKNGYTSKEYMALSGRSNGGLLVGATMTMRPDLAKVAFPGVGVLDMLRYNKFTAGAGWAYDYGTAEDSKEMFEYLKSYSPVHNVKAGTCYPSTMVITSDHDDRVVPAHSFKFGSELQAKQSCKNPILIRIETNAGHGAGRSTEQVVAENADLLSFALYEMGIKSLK

Structure (SMILES): CC(C)[C@H](NC(=O)CCCc1ccccc1)C(=O)N1CCCC1 [Compound No. 1, N-[N-(γ-phenyl)butyryl-L-valyl]pyrrolidine]
- No. of avoidances during learning ([1]; 25 mg/kg i.p.): 1.8
- Initial avoidance time ([1]; 25 mg/kg i.p.): 2.4 s
- Avoidance time After 24 hrs ([1]; 25 mg/kg i.p.): 243.0 s
- No. of amnesic rats/No. of rats tested ([1]; 25 mg/kg i.p.): 3/10
- Percentage amnesia ([1]; 25 mg/kg i.p.): 30

Structure (SMILES): O=C([C@@H]1CCCN1C(=O)COc1ccc(Cl)cc1)N1CCCC1 [compound 20]
- IC50 (prolyl endopeptidase): 0.20 μg/test tube

Structure (SMILES): CC(C)C[C@H](NC(=O)CCCc1ccccc1)C(=O)N1CCCC1 [Compound No. 2]
- IC50 (prolyl endopeptidase): 0.15 μg/test tube
- LD50 [2]: > 600 mg/kg
- No. of avoidances during learning ([1]; 25 mg/kg i.p.): 2.2
- Initial avoidance time ([1]; 25 mg/kg i.p.): 2.7 s
- Avoidance time After 24 hrs ([1]; 25 mg/kg i.p.): 264.6 s
- No. of amnesic rats/No. of rats tested ([1]; 25 mg/kg i.p.): 2/10
- Percentage amnesia ([1]; 25 mg/kg i.p.): 20

Structure (SMILES): O=C([C@@H]1CCCN1C(=O)CCCOc1ccccc1)N1CCCC1 [compound 21]
- IC50 (prolyl endopeptidase): 0.001 μg/test tube
- LD50 [2]: 350 mg/kg

Structure (SMILES): CCCCCCCC/C=C\CCCCCCCC(=O)N[C@@H](CCCC)C(=O)N1CCCC1 [compound 16]
- IC50 (prolyl endopeptidase): 0.07 μg/test tube
- No. of avoidances during learning ([1]; 20 mg/kg i.p.): 2.1
- Initial avoidance time ([1]; 20 mg/kg i.p.): 2.2 s
- Avoidance time After 24 hrs ([1]; 20 mg/kg i.p.): 252.0 s
- No. of amnesic rats/No. of rats tested ([1]; 20 mg/kg i.p.): 2/10
- Percentage amnesia ([1]; 20 mg/kg i.p.): 20

Structure (SMILES): CCCCCCCCCc1ccc(OCCCC(=O)N2CCC[C@H]2C(=O)N2CCCC2)cc1 [compound 25]
- IC50 (prolyl endopeptidase): 0.008 μg/test tube

Structure (SMILES): C=CCc1ccccc1OCCCC(=O)N1CCC[C@H]1C(=O)N1CCCC1 [compound 26]
- IC50 (prolyl endopeptidase): 0.002 μg/test tube
- LD50 [2]: 390 mg/kg

Structure (SMILES): CCCCC/C=C\C/C=C\CCCCCCCC(=O)N1CCC[C@H]1C(=O)N1CCCC1 [compound 46]
- IC50 (prolyl endopeptidase): 0.015 μg/test tube

Structure (SMILES): CCC(=O)c1ccc(OCCCC(=O)N2CCC[C@H]2C(=O)N2CCCC2)cc1 [compound 23]
- IC50 (prolyl endopeptidase): 0.003 μg/test tube

Structure (SMILES): CCC(=O)c1ccccc1OCCCC(=O)N1CCC[C@H]1C(=O)N1CCCC1 [compound 24]
- IC50 (prolyl endopeptidase): 0.004 μg/test tube

Structure (SMILES): O=C([C@@H]1CCCN1C(=O)CCCc1ccccc1)N1CCCC1 [Compound No. 18, N-[N-(γ-phenyl)butyryl-L-prolyl]pyrrolidine]
- No. of avoidances during learning ([1]; 5 mg/kg i.p.): 1.8
- Initial avoidance time ([1]; 5 mg/kg i.p.): 2.8 s
- Avoidance time After 24 hrs ([1]; 5 mg/kg i.p.): 300.0 s
- No. of amnesic rats/No. of rats tested ([1]; 5 mg/kg i.p.): 0/10
- Percentage amnesia ([1]; 5 mg/kg i.p.): 0

Structure (SMILES): C=CCOc1ccccc1CCCC(=O)N1CCC[C@H]1C(=O)N1CCCC1 [compound 27]
- IC50 (prolyl endopeptidase): 0.01 μg/test tube
- LD50 [2]: 390 mg/kg

Structure (SMILES): O=C(/C=C/c1ccccc1)c1ccccc1OCCCC(=O)N1CCC[C@H]1C(=O)N1CCCC1 [compound 42]
- IC50 (prolyl endopeptidase): 0.0008 μg/test tube
- LD50 [2]: 360 mg/kg

Structure (SMILES): O=C([C@@H]1CCCN1C(=O)CCCCOc1ccc(Oc2ccccc2)cc1)N1CCCC1 [compound 29]
- IC50 (prolyl endopeptidase): 0.009 μg/test tube

Structure (SMILES): CCCCCCCC/C=C\CCCCCCCC(=O)N1CCC[C@H]1C(=O)N1CCCC1 [Compound No. 43, N-(N-oleoyl-L-prolyl)pyrrolidine]
- IC50 (prolyl endopeptidase): 0.02 μg/test tube
- No. of avoidances during learning ([1]; 1 mg/kg i.p.): 3.4
- Initial avoidance time ([1]; 1 mg/kg i.p.): 1.9 s
- Avoidance time After 24 hrs ([1]; 1 mg/kg i.p.): 240.8 s
- No. of amnesic rats/No. of rats tested ([1]; 1 mg/kg i.p.): 2/10
- Percentage amnesia ([1]; 1 mg/kg i.p.): 20

Structure (SMILES): O=C([C@@H]1CCCN1C(=O)CCCOc1ccccc1CCc1ccccc1)N1CCCC1 [compound 37]
- IC50 (prolyl endopeptidase): 0.002 μg/test tube
- LD50 [2]: 350 mg/kg

Results, then the molecule that gave them:

- IC50 (prolyl endopeptidase): 0.005 μg/test tube
Structure (SMILES): O=C([C@@H]1CCCN1C(=O)CCCOc1ccccc1OCc1ccccc1)N1CCCC1 [compound 30]

- IC50 (prolyl endopeptidase): 0.002 μg/test tube
Structure (SMILES): O=C([C@@H]1CCCN1C(=O)CCCCOc1ccccc1/C=C/c1ccccc1)N1CCCC1 [compound 40]

- IC50 (prolyl endopeptidase): 0.15 μg/test tube
Structure (SMILES): CCCC[C@H](NC(=O)CCCc1ccccc1)C(=O)N1CCCC1 [compound 5]

- IC50 (prolyl endopeptidase): 0.008 μg/test tube
Structure (SMILES): O=C([C@@H]1CCCN1C(=O)CCCOc1ccccc1O)N1CCCC1 [compound 22]

- IC50 (prolyl endopeptidase): 0.04 μg/test tube
Structure (SMILES): CC(C)[C@H](NC(=O)CCCOc1ccc(Cc2ccccc2)cc1)C(=O)N1CCCC1 [compound 13]

- IC50 (prolyl endopeptidase): 0.003 μg/test tube
Structure (SMILES): O=C([C@@H]1CCCN1C(=O)CCCOc1ccc(/C=C/c2ccccc2)cc1)N1CCCC1 [compound 36]

- IC50 (prolyl endopeptidase): 0.001 μg/test tube
Structure (SMILES): O=C([C@@H]1CCCN1C(=O)CCCOc1ccccc1/C=C/c1ccccc1)N1CCCC1 [Compound No. 35, N-{N-[γ(o-(E)-stilbenyloxy)butyryl]-L-prolyl)pyrrolidine]

- IC50 (prolyl endopeptidase): 0.004 μg/test tube
Structure (SMILES): O=C(c1ccccc1)c1ccc(OCCCC(=O)N2CCC[C@H]2C(=O)N2CCCC2)cc1 [compound 31]

- IC50 (prolyl endopeptidase): 0.003 μg/test tube
Structure (SMILES): O=C([C@@H]1CCCN1C(=O)CCOc1ccccc1/C=C/c1ccccc1)N1CCCC1 [compound 39]

- IC50 (prolyl endopeptidase): 0.001 μg/test tube
Structure (SMILES): O=C(/C=C/c1ccccc1OCCCC(=O)N1CCC[C@H]1C(=O)N1CCCC1)c1ccccc1 [compound 41]

- IC50 (prolyl endopeptidase): 0.02 μg/test tube
Structure (SMILES): CC(C)[C@H](NC(=O)CCCOc1ccccc1/C=C/c1ccccc1)C(=O)N1CCCC1 [compound 10]

- IC50 (prolyl endopeptidase): 0.08 μg/test tube
Structure (SMILES): CC(C)C[C@H](NC(=O)CCCOc1ccc(Cc2ccccc2)cc1)C(=O)N1CCCC1 [compound 12]

- IC50 (prolyl endopeptidase): 0.03 μg/test tube
Structure (SMILES): CC(C)C[C@H](NC(=O)CCCOc1ccccc1/C=C/c1ccccc1)C(=O)N1CCCC1 [compound 9]

- IC50 (prolyl endopeptidase): 0.001 μg/test tube
Structure (SMILES): O=C([C@@H]1CCCN1C(=O)CCCOc1ccccc1Cc1ccccc1)N1CCCC1 [compound 34]

- IC50 (prolyl endopeptidase): 0.001 μg/test tube
Structure (SMILES): O=C(c1ccccc1)c1ccccc1OCCCC(=O)N1CCC[C@H]1C(=O)N1CCCC1 [compound 32]

- IC50 (prolyl endopeptidase): 0.0004 μg/test tube
Structure (SMILES): O=C([C@@H]1CCCN1C(=O)CCCOc1cccc(Cc2ccccc2)c1)N1CCCC1 [compound 33]
